From PubChem BioAssay AID330 (DTP/NCI, 2004)
Inconclusive results and toxic doses are left out. Rule for the calls: active = survival T/C of 150% or more; inactive = T/C below 125% in these data.

Test system: P388 leukemia ip, CD2F1 mice, survival T/C
Experiment: NCI In Vivo Anticancer Drug Screen. Data for tumor model P388 Leukemia (intraperitoneal) in CD2F1 (CDF1) mice
Details: endpoint: median survival time, higher = longer survival
How it was run: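 Mice carrying the transplanted tumor received test compound or vehicle. Survival was recorded in each group, and the value is the treated-group measurement divided by that of the vehicle-treated control group.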

[1] = dose: 50.0 mg/kg/injection, schedule: Q01DX009 (ip), vehicle: saline with Tween-80
[2] = dose: 100.0 mg/kg/injection, schedule: Q01DX009 (ip), vehicle: saline with Tween-80
[3] = dose: 200.0 mg/kg/injection, schedule: Q01DX009 (ip), vehicle: saline with Tween-80
[4] = dose: 25.0 mg/kg/injection, schedule: Q01DX009 (ip), vehicle: saline with Tween-80

Measured: T/C

COc1cc(OC)c(NC(=S)Nc2cc(Cl)c(OC)cc2OC)cc1Cl
inactive: [1] 106 % of control | [2] 102 % of control | [3] 103 % of control

NC(=O)c1cccnc1
inactive: [1] 106 % of control | [2] 110 % of control | [3] 97 % of control | dose: 250.0 mg/kg/injection, schedule: Q01DX009 (sc), vehicle: saline 102 % of control | dose: 500.0 mg/kg/injection, schedule: Q01DX009 (sc), vehicle: saline 105 % of control

CN(C)c1ccc(/C=C/c2ccnc3ccccc23)c(F)c1
inactive: dose: 50.0 mg/kg/injection, schedule: Q01DX009 (ip), vehicle: saline 86 % of control | dose: 100.0 mg/kg/injection, schedule: Q01DX009 (ip), vehicle: saline 92 % of control | dose: 200.0 mg/kg/injection, schedule: Q01DX009 (ip), vehicle: saline 86 % of control

Clc1nnc(-c2ccccc2)c(-c2ccccc2)n1
inactive: [4] 100 % of control | [1] 100 % of control | [2] 100 % of control

CC(C#N)CCCC#N (stereo unspecified)
inactive: dose: 12.5 mg/kg/injection, schedule: Q01DX009 (ip), vehicle: saline with Tween-80 100 % of control | [4] 100 % of control | [1] 100 % of control

CC1(C)NC2Cc3c([nH]c4ccccc34)C3(C)CCC1CC23 (stereo unspecified)
inactive: dose: 12.5 mg/kg/injection, schedule: Q01DX005 (ip), vehicle: Klucel (hydroxypropylcellulose) (HPC) 94 % of control | dose: 25.0 mg/kg/injection, schedule: Q01DX005 (ip), vehicle: Klucel (hydroxypropylcellulose) (HPC) 94 % of control | dose: 50.0 mg/kg/injection, schedule: Q01DX005 (ip), vehicle: Klucel (hydroxypropylcellulose) (HPC) 89 % of control | dose: 100.0 mg/kg/injection, schedule: Q01DX005 (ip), vehicle: Klucel (hydroxypropylcellulose) (HPC) 108 % of control
